Values after ≈ are worked out from the molar mass of the structure shown.
Key:
[1] = system: IL-10 production of LPS-activated monocytes; experiment: Increase in IL-10 production of LPS-activated human monocytes (ELISA of culture supernatant); type: cell-based; conditions: 20 μg/ml LPS from E. coli, 24 hours
Experimental: (§1) Stimulation of human monocytes with lipopolysaccharide for the secretion of IL-10 and IL-12:
(§2) Human monocytes were isolated from peripheral blood mononuclear cells (PBMC) that had been obtained by means of a ficoll density gradient centrifugation from heparinized full blood. For this purpose the PBMC were incubated with a monoclonal antibody that is directed against the monocyte-specific surface molecule CD14 and on which are coupled superparamagnetic microbeads (Miltenyi Biotech, Bergisch Gladbach). For the positive selection of the marked monocytes from the cell mixture of the PBMC, the total cell suspension was added to a column with ferromagnetic carrier matrix and this was placed in a magnetic field. In this way the cells that were loaded with microbeads were bound to the carrier matrix while unmarked cells passed through the column and were discarded. After removing the matrix from the magnetic field the antibody-loaded cells were eluted by rinsing the now demagnetized column with buffer. The purity of the CD14-positive monocyte population obtained in this way is about 95–98%. These monocytes were incubated for 1 hour at 37° C. and 5% CO2 in a density of 10^6 cells/ml culture medium (RPMI, supplemented with 10% fetal calf serum) with the test substances dissolved in DMSO. 20 μg/ml LPS from E. coli were then added. After 24 hours cell-free culture supernatants were taken and tested for their content of IL-10 as well as IL-12.
(§3) The concentration of IL-12 and IL-10 in the cell culture supernatants was determined by means of sandwich ELISAs using two anti-IL-12 and IL-10 monoclonal antibodies (Biosource Europe, Fleurus, Belgium). A reference standard curve with human IL-10 and IL-12 was included. The detection limit of the IL-12 ELISA was 10 pg/ml, and that of the IL-10 ELISA was 15 pg/ml.

[2] = system: IL-12 production of LPS-activated monocytes; experiment: Inhibition of IL-12 production of LPS-activated human monocytes (ELISA of culture supernatant); type: cell-based; conditions: 20 μg/ml LPS from E. coli, 24 hours; for IC50: Monocyte
Experimental: as §1, §2, §3

| Compound | Increase in IL-10 Production Maximum (%) [1] [%] | Inhibition of IL-12 Production Maximum (%) [2] [%] | IC50 [2] [µg/mL] | Inhibition of IL-12 Production IC50 [2] [ng/mL] |
| --- | --- | --- | --- | --- |
| Br.O=C1CCC(N2C=Nc3cc(Cl)ccc3C2)C(=O)N1 (stereo not drawn) [Example 1, 3-(7-chloro-4H-quinazolin-3-yl)piperidine-2,6-dione; hydrobromide] | 360 | 99 | 0.005 | – |
| Br.O=C1CCC(N2C=Nc3ccccc3C2)C(=O)N1 (stereo not drawn) [Example 3, 3-(4H-quinazolin-3-yl)piperidine-2,6-dione; hydrobromide] | 230 | 98 | 0.01 | – |
| O=C1CCC(N2C=Nc3cccc(Cl)c3C2)C(=O)N1 (stereo not drawn) [Example 7a, 3-(5-chloro-4H-quinazolin-3-yl)piperidine-2.6-dione] | 365 | 98 | – | 1 |
| Cl.O=C1CCC(N2C=Nc3cc(F)ccc3C2)C(=O)N1 (stereo not drawn) [Example 7f, 3-(7-fluoro-4H-quinazolin-3-yl)piperidine-2,6-dione; hydrochloride] | 420 | 98 | 0.0008 | – |
| O=C1CCC(N2C=Nc3cccc(F)c3C2)C(=O)N1 (stereo not drawn) [Example 7h, 3-(5-fluoro-4H-quinazolin-3-yl)piperidine-2.6-dione] | 316 | 97 | – | 6 |
| O=C1CCC(N2C=Nc3cccc([N+](=O)[O-])c3C2)C(=O)N1 (stereo not drawn) [Example 7i, 3-(5-nitro-4H-ginazolin-3-yl)piperidine-2,6-dione] | 211 | 96 | – | 36 |
| Cc1cccc2c1CN(C1CCC(=O)NC1=O)C=N2 (stereo not drawn) [Example 7m, 3-(5-methyl-4H-quinazolin-3-yl)piperidine-2,6-dione] | 202 | 89 | 0.05 (≈ 0.194 µM) | – |
| O=C1CCC(N2C=Nc3cc(F)c(F)cc3C2)C(=O)N1 (stereo not drawn) [Example 7n, 3-(6,7-difluoro-4H-quinazolin-3-yl)piperidine-2,6-dione] | 263 | 84 | 0.042 (≈ 0.15 µM) | – |
| O=C1CCC(N2C(=O)c3ccccc3C2=O)C(=O)N1 (stereo not drawn) [Thalidomide, thalidomide, reference compound] | 180 | 80 | 0.1 (≈ 0.387 µM) | – |
